Results published in patent publication US8501400B2, “Methods and compositions for determining the pathogenic status of infectious agents” (priority 2007, dated 2013).

Legend:
RIF-resistant Mtb strain = format: cell-based; settings: 16 hr drug treatment, MOI=1, 4 hr post-infection, RT-PCR
EMB resistant Mtb strain = format: cell-based; settings: 16 hr drug treatment, MOI=1, 4 hr post-infection, RT-PCR

## CC[C@@H](CO)NCCN[C@@H](CC)CO [EMB, Ethambutol]
RIF-resistant Mtb strain
  Reduction in SML generation compared to the untreated control: approximately 10 fold
EMB resistant Mtb strain
  SML generation after drug treatment: not decreased
